Assay results: US20150051257A1, “SULPHONAMIDE DERIVATIVES OF BENZYLAMINE FOR THE TREATMENT OF CNS DISEASES” (ADAMED SP. Z O.O, priority 2012, published 2015)

Assays:
[1] = test system: σ (non-selective); experiment: Radioligand binding assay, σ receptors; conditions: test compound 1×10^−6M; [3H]DTG; rat cerebral cortex
Procedure: (§1) Specific ligand binding to the receptors is defined as the difference between the total binding and the non-specific binding determined in the presence of an excess of unlabelled ligand.
(§2) The results are expressed as a percent of control specific binding ((measured specific binding/control specific binding)×100%) obtained in the presence of the test compounds. The compounds were tested for their affinity to receptors at a concentration of 1×10^−6M.
(§3) Conditions and methodology of in vitro tests are given by reference to the literature in Table 1, and the results of tests for representative compounds are given in Table 2 (dopaminergic receptors D2 and D3), in Table 3 (dopaminergic receptors D1 and D4.4), in Table 4 (serotoninergic receptors 5-HT1A, 5-HT2A, 5-HT6, 5-HT7), in table 5 (serotoninergic receptors 5-HT2C), in Table 6 (sigma o receptors), in Table 7 (adrenergic receptors α1, histaminergic receptors H1 and muscarinic receptors M3), in Table 8 (adrenergic receptors α2C) and in Table 9 (serotonin transporter receptors SERT).

[2] = test system: α1 (non-selective); experiment: Radioligand binding assay, adrenergic α1 receptors; conditions: test compound 1×10^−6M; [3H]prazosin; rat cerebral cortex
Procedure: as §1, §2, §3

[3] = target: T1, hERG potassium channels (KCNH2 gene, expressed in CHO cells) (Homo sapiens, UniProt Q12809); experiment: Ability to block hERG potassium channel (electrophysiology, IonWorks Quattro); type: cell-based; conditions: cloned hERG in CHO cells; test pulse +40 mV; concentration not given
T1 construct: expressed in transfected cells; host or cells: CHO cells
Procedure: Ability to Block hERG Potassium Channel Ability to block hERG potassium channels was determined using the electrophysiological method and cloned hERG potassium channels (KCNH2 gene, expressed in CHO cells) as biological material. The effects were evaluated using IonWorks™ Quattro system (MDS-AT).
hERG current was elicited using a pulse pattern with fixed amplitudes (conditioning pre-pulse: −80 mV for 25 ms; test pulse: +40 mV for 80 ms) from a holding potential of 0 mV. hERG current was measured as a difference between the peak current at 1 ms after the test step to +40 mV and the steady-state current at the end of the step to +40 mV.
Data acquisition and analyses were performed using the lonWorks Quattro™ system operation software (version 2.0.2; Molecular Devices Corporation, Union City, Calif.). Data were corrected for leak current.
The hERG block was calculated as: % Block=(1−I TA/IControl)×100%, where IControl and ITA were the currents elicited by the test pulse in control and in the presence of a test compound, respectively.

T1 sequence (Q12809 whole entry): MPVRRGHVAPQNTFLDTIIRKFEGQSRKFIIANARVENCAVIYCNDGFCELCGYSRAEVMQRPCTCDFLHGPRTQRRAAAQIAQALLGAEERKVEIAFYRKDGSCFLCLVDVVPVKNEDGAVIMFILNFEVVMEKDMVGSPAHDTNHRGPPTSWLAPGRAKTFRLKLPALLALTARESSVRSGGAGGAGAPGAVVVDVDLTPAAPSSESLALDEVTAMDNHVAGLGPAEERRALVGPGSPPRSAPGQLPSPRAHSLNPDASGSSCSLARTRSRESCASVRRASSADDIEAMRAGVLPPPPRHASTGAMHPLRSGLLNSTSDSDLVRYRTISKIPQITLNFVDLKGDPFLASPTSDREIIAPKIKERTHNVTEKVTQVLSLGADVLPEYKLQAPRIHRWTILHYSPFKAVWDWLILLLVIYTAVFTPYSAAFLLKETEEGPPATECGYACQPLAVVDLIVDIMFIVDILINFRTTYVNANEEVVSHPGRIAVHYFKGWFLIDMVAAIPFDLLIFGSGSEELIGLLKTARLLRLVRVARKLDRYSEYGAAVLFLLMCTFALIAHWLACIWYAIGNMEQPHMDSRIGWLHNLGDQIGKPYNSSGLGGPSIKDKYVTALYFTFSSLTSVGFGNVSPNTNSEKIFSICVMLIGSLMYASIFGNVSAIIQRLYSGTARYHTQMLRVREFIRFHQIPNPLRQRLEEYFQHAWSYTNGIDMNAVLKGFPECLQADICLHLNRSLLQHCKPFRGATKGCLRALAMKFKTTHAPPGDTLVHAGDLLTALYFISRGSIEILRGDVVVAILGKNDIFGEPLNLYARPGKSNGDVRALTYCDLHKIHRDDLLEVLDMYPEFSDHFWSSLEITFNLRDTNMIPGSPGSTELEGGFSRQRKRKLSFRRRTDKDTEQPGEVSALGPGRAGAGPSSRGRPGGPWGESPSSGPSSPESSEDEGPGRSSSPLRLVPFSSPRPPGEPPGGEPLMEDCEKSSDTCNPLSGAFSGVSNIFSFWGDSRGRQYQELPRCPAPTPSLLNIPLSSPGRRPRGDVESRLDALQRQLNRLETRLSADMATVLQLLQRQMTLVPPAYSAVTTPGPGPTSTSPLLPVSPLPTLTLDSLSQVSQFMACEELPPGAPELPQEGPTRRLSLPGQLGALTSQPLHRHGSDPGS

σ [%] [1] [%] | α1 [%] [2] [%] | SMILES | hERG [%] (% Block) [3]
74 | 20 | COc1ccccc1OCCNCc1cccc(NS(=O)(=O)c2ccc3ccccc3c2)c1 [Compound 10, N-[3-[[2-(2-methoxyphenoxyl)ethylamino]methyl]phenyl]naphthalene-2-sulphonamide] | –
79 | 59 | Cc1cccc(S(=O)(=O)Nc2cccc(CNCCOc3cccc4[nH]ccc34)c2)c1 [Compound 49, N-[3-[[2-(1H-indol-4-yloxy)ethylamino]methyl]phenyl]-3-methyl-benzenesulphonamide] | 2
95 | 84 | O=S(=O)(Nc1cccc(CNCCOc2cccc3c2OCCO3)c1)c1ccc(I)cc1 [Compound 22, N-[3-[[2-(2,3-dihydro-1,4-benzodioxin-5-yloxy)ethylamino]methyl]phenyl]-4-iodobenzenesulphonamide] | –
76 | 34 | O=S(=O)(Nc1cccc(CNCCOc2cccc3[nH]ccc23)c1)c1cccc2ccccc12 [Compound 51, N-[3-[[2-(1H-indol-4-yloxy)ethylamino]methyl]phenyl]naphthalene-1-sulphonamide] | 1
79 | 41 | O=S(=O)(Nc1cccc(CNCCOc2cccc3[nH]ccc23)c1)c1ccc2ccccc2c1 [Compound 52, N-[3-[[2-(1H-indol-4-yloxy)ethylamino]methyl]phenyl]naphthalene-2-sulphonamide] | 2

More lines, now with the values behind:

SMILES | σ [%] [1] [%] | α1 [%] [2] [%] | hERG [%] (% Block) [3]
O=S(=O)(Nc1cccc(CNCCc2cccc(O)c2)c1)c1ccc2ccccc2c1 [Compound 17, N-[3-[[2-(3-hydroxyphenyl)ethylamino]methyl]phenyl]naphthalene-2-sulphonamide] | 71 | 31 | –
O=S(=O)(Nc1cccc(CNCCOc2cccc3c2OCCO3)c1)c1csc2ccccc12 [Compound 43, N-[3-[[2-(2,3-dihydro-1,4-benzodioxin-5-yloxy)ethylamino]methyl]phenyl]benzothiophene-3-sulphonamide] | – | – | 10
O=S(=O)(Nc1cccc(CNCCOc2cccc3c2OCCO3)c1)c1cccc2ccccc12 [Compound 35, N-[3-[[2-(2,3-dihydro-1,4-benzodioxin-5-yloxy)ethylamino]methyl]phenyl]naphthalene-1-sulphonamide] | – | – | −1
Cc1cccc(CCNCc2cccc(NS(=O)(=O)c3ccc4ccccc4c3)c2)c1 [Compound 8, N-[3-[[2-(3-methylphenyl)ethylamino]methyl]phenyl]naphthalene-2-sulphonamide] | 85 | 17 | –
O=S(=O)(Nc1cccc(CNCCc2ccccc2)c1)c1ccc2ccccc2c1 [Compound 1, N-[3-[(phenylethylamino)methyl]phenyl]naphthalene-2-sulphonamide] | 83 | 26 | –
COc1ccc(CCNCc2cccc(NS(=O)(=O)c3ccc4ccccc4c3)c2)cc1 [Compound 14, N-[3-[[2-(4-methoxyphenyl)ethylamino]methyl]phenyl]naphthalene-2-sulphonamide] | 54 | 13 | –
COc1cccc(CCNCc2cccc(NS(=O)(=O)c3ccc4ccccc4c3)c2)c1 [Compound 11, N-[3-[[2-(3-methoxyphenyl)ethylamino]methyl]phenyl]naphthalene-2-sulphonamide] | 76 | 18 | −4
CN(CCCc1noc2cc(F)ccc12)Cc1cccc(NS(=O)(=O)c2ccc(I)cc2)c1 [Compound 68, N-[3-[[3-(6-fluoro-1,2-benzoxazol-3-yl)propylmethylamino]methyl]phenyl]-4-iodobenzenesulphonamide] | 73 | 84 | –
COc1ccccc1CCNCc1cccc(NS(=O)(=O)c2ccc3ccccc3c2)c1 [Compound 9, N-[3-[[2-(2-methoxyphenyl)ethylamino]methyl]phenyl]naphthalene-2-sulphonamide] | – | 56 | –
O=S(=O)(Nc1cccc(CNCCc2cccc(Cl)c2)c1)c1ccc2ccccc2c1 [Compound 6, N-[3-[[2-(3-chlorophenyl)ethylamino]methyl]phenyl]naphthalene-2-sulphonamide] | 73 | 53 | –
O=S(=O)(Nc1cccc(CNCCOc2cccc3c2OCCO3)c1)c1ccc2ccccc2c1 [Compound 36, N-[3-[[2-(2,3-dihydro-1,4-benzodioxin-5-yloxy)ethylamino]methyl]phenyl]naphthalene-2-sulphonamide] | – | – | 1
